From patent publication US8809328B2, “Imidazole derivative” (National University Corporation Shizuoka University, priority 2011, dated 2014)

Key:
Format in all cases: in vivo
[1] = tested on: rice (Nipponbare) (Oryza sativa L. cv. Nipponbare); assay: Influence of AOH and 3-methyl-AOH on rice seedlings in test tube culture fluid (Example 12); conditions: 0.2 mM in culture fluid, 28° C., one week; for Extension of roots: FIG. 8
Procedure: Sterilized seeds of rice (Nipponbare) (Oryza sativa L. cv. Nipponbare) were allowed to sprout at 28° C. in three days. The sprouted seeds (four seeds per test tube) were cultivated in a test tube, in which a control culture fluid, a culture fluid to which 0.2 mM of AOH was added, or a culture fluid to which 0.2 mM of 3-methyl-AOH was added and was placed, at 28° C. for a week. The control culture fluid comprises 0.5 mM of NH4NO3, 0.3 mM of Na2HPO4, 0.15 mM of K2SO4, 0.2 mM of MgCl2, 0.1 mM of CaCl2, 23 μM of Fe-ethylenediaminetetraacetic acid (Fe-EDTA), 25 μM of H3BO3, 4.5 μM of MnSO4, 0.15 μM of CuSO4, 0.35 μM of ZnSO4, and 0.05 μM of Na2MoO4. The culture fluid was replaced with new culture fluid every other day. After cultivation, the length of shoots and roots was measured. […] (In FIG. 8, “*” indicates P value <0.05, and “**” indicates P value <0.01. n=16.). In contrast, 3-methyl-AOH gave no influence on extension of the shoots.

[2] = tested on: Rice (Oryza sativa); assay: Rice cultivated in culture fluid added with AHX; conditions: culture fluid with 0.2 mM AHX, 14 days, vs control section
[3] = tested on: Zoysiagrass (Agrostis stolonifera); assay: Zoysiagrass cultivated on agar medium added with AHX; conditions: agar medium with 1 mM AHX, 30 days, vs control section
[4] = tested on: rice (Nipponbare) (Oryza sativa L. cv. Nipponbare); assay: Influence of AHX or AOH on rice seedlings in test tube culture fluid (Example 6); conditions: 50, 200 or 1000 μM in culture fluid, 28° C., one week, FIG. 4
Procedure: Sterilized seeds of rice (Nipponbare) (Oryza sativa L. cv. Nipponbare) were allowed to sprout at 28° C. in three days. The sprouted seeds (four seeds per test tube) were cultivated in a test tube, in which a control culture fluid or a culture fluid to which AHX or AOH was added to different concentrations and was placed, at 28° C. for a week. AOH that was produced according to the method of Example 5 was used. The control culture fluid comprises 0.5 mM of NH4NO3, 0.3 mM of Na2HPO4, 0.15 mM of K2SO4, 0.2 mM of MgCl2, 0.1 mM of CaCl2, 23 μM of Fe-ethylenediaminetetraacetic acid (Fe-EDTA), 25 μM of H3BO3, 4.5 μM of MnSO4, 0.15 μM of CuSO4, 0.35 μM of ZnSO4, and 0.05 μM of Na2MoO4. As for the culture fluids containing AHX or AOH, AHX or AOH is added to the above described control culture fluids such that the final concentration becomes 50 μM, 200 μM or 1000 μM. The culture fluid was replaced with new culture fluid every other day. After cultivation, the length of shoots and roots was measured.

[5] = tested on: rice (Nipponbare) (Oryza sativa L. cv. Nipponbare); assay: Influence of AOH on soil cultivation of rice (pot cultivation)
Procedure: Rice (Nipponbare) (Oryza sativa L. cv. Nipponbare) was sown on Apr. 29, 2011, and each of grown seedlings was transplanted to a pot (1/5000a pot) filled with soil which contains a fertilizer comprising N (1440 mg), P2O5 (12 mg), K2O (760 mg) and CaO (806 mg) on June 7th, and was soil-cultivated in a greenhouse (28° C.) under any one of seven types of cultivation conditions of the following (1) to (7) until September 24th. Supply of water was performed by providing two liter of tap water or tap water to which AOH was added every week (see below).
(1) Tap water was provided during pot cultivation.
(2) Tap water to which AOH was added such that the final concentration became 50 μM was provided for two weeks (from June 7th to June 20th) in the planting stage. Tap water was provided in the other period.
(3) Tap water to which AOH was added such that the final concentration became 50 μM was provided for two weeks (from July 4th to July 17th) in the tillering stage. Tap water was provided in the other period.
(4) Tap water added to which AOH was added such that the final concentration became 50 μM was provided for two weeks (from July 25th to August 7th) in the topdressing stage for panicle formation. Tap water was provided in the other period.
(5) Tap water added to which AOH was added such that the final concentration became 50 μM was provided for two weeks (from August 15th to August 28th) in the topdressing stage for ripening. Tap water was provided in the other period. […]
(7) Tap water to which AOH was added such that the final concentration became 50 μM was provided during pot cultivation.
Brown rice and plant bodies soil-cultivated were dried at 30° C. for 15 days, and brown rice weight (both of weight per plant and weight per 100 brown rice grains), panicle length, culm length, number of panicles, number of tillers, and aerial part weight were measured.

[6] = tested on: rice (Nipponbare) (Oryza sativa L. cv. Nipponbare); assay: Influence of AOH on soil cultivation of rice (field cultivation)
Procedure: Rice (Nipponbare) (Oryza sativa L. cv. Nipponbare) was used and cultivated in a field as follows. As cultivation conditions, five sections of (1) to (5) were set.
Rice (Nipponbare) (Oryza sativa L. cv. Nipponbare) was sown in a nursery box on Apr. 29, 2011, and provided with a total of 15 liters of tap water or tap water to which AOH was added for two weeks from May 24th while raising seedling in the nursery box. On June 7th, each of grown seedlings was transplanted to the field. The planting density was set to the interrow space of 30 cm and the planting distance of 15 cm (three reproductions of 3×3.3 m per one section). As basal fertilizer, 50 L of tap water or tap water to which AOH was added per section was supplied on June 7th. The cultivation was continued, and as topdressing for panicle formation, 50 L of tap water or tap water to which AOH was added per section was supplied on July 25th. Plant bodies were harvested on October 12th.
(1) Tap water was used as the culture fluid during seedling raising, the basal fertilizer, and the topdressing for panicle formation.
(2) Tap water to which AOH was added such that the final concentration became 0.5 mM was provided as the culture fluid during seedling raising. Tap water was used as the basal fertilizer, and the topdressing for panicle formation.
(3) Tap water to which AOH was added such that the final concentration became 1.0 mM was provided as the culture fluid during seedling raising. Tap water was used as the basal fertilizer and the topdressing for panicle formation.
(4) Tap water to which AOH was added such that the final concentration became 0.5 mM was provided as the basal fertilizer. Tap water was used as the culture fluid during seedling raising and the topdressing for panicle formation.
(5) Tap water to which AOH was added such that the final concentration became 0.5 mM was provided as the topdressing for panicle formation. Tap water was used as the culture fluid during seedling raising and the basal fertilizer.
Brown rice was dried, and total brown rice weight, hull weight, non-sieved brown rice weight and sieved brown rice, per 10 plant bodies, and thousand kernel weight were measured.

[7] = 50 μM AOH, topdressing stage for panicle formation
[8] = 50 μM AOH, topdressing stage for ripening
[9] = applying AOH all the time, vs control
[10] = 0.5 mM AOH during seedling raising
[11] = 0.5 mM AOH, topdressing at panicle formation
[12] = 1.0 mM AOH during seedling raising
[13] = per 10 plants, 0.5 mM AOH as basal fertilizer
[14] = per 10 plants, 0.5 mM AOH during seedling raising
[15] = per 10 plants, 0.5 mM AOH, topdressing at panicle formation
[16] = per 10 plants, 1.0 mM AOH during seedling raising

SMILES: Cn1nnc2[nH]c(=O)[nH]c2c1=O [3-methyl-AOH, 3-methyl-3H-imidazo[4,5-d][1,2,3]triazin-4,6(5H,7H)-dione]
- Extension of shoots [1]: no influence
- Extension of roots [1]: had extension activity for roots

SMILES: O=c1[nH]nnc2[nH]cnc12 [AHX, 7H-imidazo[4,5-d][1,2,3]triazin-4(3H)-one]
- Extension of shoots [2]: clearly promoted
- Extension of shoots [3]: clearly promoted
- Extension of shoots and roots [4]: promoted extension of shoots and roots concentration-dependently

SMILES: O=c1[nH]c2nn[nH]c(=O)c2[nH]1 [AOH, 3H-imidazo[4,5-d][1,2,3]triazin-4,6(5H,7H)-dione]
- Extension of roots [1]: had extension activity for roots
- Aerial part ([5]; 5 μM AOH, all the time): 151 ± 6.19 g
- Brown rice weight (g/100 grains) ([5]; 5 μM AOH, all the time): 2.13 ± 0.09 g/100 grains
- Brown rice weight (g/plant) ([5]; 5 μM AOH, all the time): 59.3 ± 2.27 g/plant
- Culm length ([5]; 5 μM AOH, all the time): 89.7 ± 6.40 cm
- Increasing rate of aerial part relative to control ([5]; 5 μM AOH, all the time): 30%
- Increasing rate of brown rice weight per plant relative to control ([5]; 5 μM AOH, all the time): 42%
- Increasing rate of number of panicles relative to control ([5]; 5 μM AOH, all the time): 24%
- Number of tillers ([5]; 5 μM AOH, all the time): 37.9 ± 3.71
- Panicle length ([5]; 5 μM AOH, all the time): 24.5 ± 2.24 cm
- number of panicles ([5]; 5 μM AOH, all the time): 32.8 ± 2.48
- Aerial part ([5]; 50 μM AOH, all the time): 147 ± 9.63 g
- Brown rice weight (g/100 grains) ([5]; 50 μM AOH, all the time): 2.15 ± 0.16 g/100 grains
- Brown rice weight (g/plant) ([5]; 50 μM AOH, all the time): 58.2 ± 3.76 g/plant
- Culm length ([5]; 50 μM AOH, all the time): 92.3 ± 5.64 cm
- Increasing rate of aerial part relative to control ([5]; 50 μM AOH, all the time): 27%
- Increasing rate of brown rice weight per plant relative to control ([5]; 50 μM AOH, all the time): 40%
- Increasing rate of number of panicles relative to control ([5]; 50 μM AOH, all the time): 23%
- Number of tillers ([5]; 50 μM AOH, all the time): 35.7 ± 4.15
- Panicle length ([5]; 50 μM AOH, all the time): 24.4 ± 1.96 cm
- number of panicles ([5]; 50 μM AOH, all the time): 32.7 ± 4.03
- Aerial part ([5]; 50 μM AOH, planting stage): 125 ± 21.2 g
- Brown rice weight (g/100 grains) ([5]; 50 μM AOH, planting stage): 2.11 ± 0.07 g/100 grains
- Brown rice weight (g/plant) ([5]; 50 μM AOH, planting stage): 46.6 ± 9.43 g/plant
- Culm length ([5]; 50 μM AOH, planting stage): 97.1 ± 12.1 cm
- Increasing rate of brown rice weight per plant relative to control ([5]; 50 μM AOH, planting stage): 12%
- Number of tillers ([5]; 50 μM AOH, planting stage): 34.6 ± 2.70
- Panicle length ([5]; 50 μM AOH, planting stage): 23.5 ± 1.61 cm
- number of panicles ([5]; 50 μM AOH, planting stage): 27.8 ± 4.26
- Aerial part ([5]; 50 μM AOH, tillering stage): 112 ± 30.0 g
- Brown rice weight (g/100 grains) ([5]; 50 μM AOH, tillering stage): 2.12 ± 0.12 g/100 grains
- Brown rice weight (g/plant) ([5]; 50 μM AOH, tillering stage): 42.3 ± 12.2 g/plant
- Culm length ([5]; 50 μM AOH, tillering stage): 94.5 ± 4.63 cm
- Number of tillers ([5]; 50 μM AOH, tillering stage): 30.9 ± 3.67
- Panicle length ([5]; 50 μM AOH, tillering stage): 26.2 ± 1.03 cm
- number of panicles ([5]; 50 μM AOH, tillering stage): 23.0 ± 5.44
- Aerial part [5, 7]: 134 ± 16.5 g
- Brown rice weight (g/100 grains) [5, 7]: 2.12 ± 0.07 g/100 grains
- Brown rice weight (g/plant) [5, 7]: 53.7 ± 3.59 g/plant
- Culm length [5, 7]: 90.2 ± 6.15 cm
- Increasing rate of brown rice weight per plant relative to control [5, 7]: 29%
- Number of tillers [5, 7]: 31.6 ± 3.60
- Panicle length [5, 7]: 24.5 ± 1.61 cm
- number of panicles [5, 7]: 30.5 ± 4.50
- Aerial part [5, 8]: 131 ± 13.3 g
- Brown rice weight (g/100 grains) [5, 8]: 2.18 ± 0.08 g/100 grains
- Brown rice weight (g/plant) [5, 8]: 53.2 ± 2.61 g/plant
- Culm length [5, 8]: 92.8 ± 3.98 cm
- Increasing rate of brown rice weight per plant relative to control [5, 8]: 28%
- Number of tillers [5, 8]: 31.4 ± 3.91
- Panicle length [5, 8]: 24.0 ± 2.07 cm
- number of panicles [5, 8]: 28.8 ± 4.67
- aerial part weight [5, 9]: increased more than the control
- number of panicles [5, 9]: increased more than the control
- brown rice weight per plant ([5]; applying AOH in the topdressing stage for panicle formation or later, vs control): increased more than the control
- Increasing rate of sieved brown rice relative to control ([6]; 0.5 mM AOH as basal fertilizer): 10.5%
- Thousand kernel weight ([6]; 0.5 mM AOH as basal fertilizer): 23.5 ± 0.6 g
- Increasing rate of sieved brown rice relative to control [6, 10]: 8.9%
- Thousand kernel weight [6, 10]: 23.0 ± 0.5 g
- Increasing rate of sieved brown rice relative to control [6, 11]: 7.2%
- Thousand kernel weight [6, 11]: 23.4 ± 0.5 g
- Increasing rate of sieved brown rice relative to control [6, 12]: 10.2%
- Thousand kernel weight [6, 12]: 23.5 ± 0.3 g
- Hull weight ([6]; applying AOH, vs control): increased more than the control
- Sieved brown rice ([6]; applying AOH, vs control): increased more than the control
- non-sieved brown rice weight ([6]; applying AOH, vs control): increased more than the control
- total brown rice weight ([6]; applying AOH, vs control): increased more than the control
- Hull weight [6, 13]: 288 ± 23.9 g
- Non-sieved brown rice weight [6, 13]: 230 ± 19.7 g
- Sieved brown rice [6, 13]: 222 ± 19.8 g
- Total weight [6, 13]: 644 ± 49.5 g
- Hull weight [6, 14]: 283 ± 35.0 g
- Non-sieved brown rice weight [6, 14]: 227 ± 28.9 g
- Sieved brown rice [6, 14]: 218 ± 29.0 g
- Total weight [6, 14]: 630 ± 71.4 g
- Hull weight [6, 15]: 279 ± 24.9 g
- Non-sieved brown rice weight [6, 15]: 224 ± 20.9 g
- Sieved brown rice [6, 15]: 215 ± 20.7 g
- Total weight [6, 15]: 643 ± 54.1 g
- Hull weight [6, 16]: 284 ± 24.4 g
- Non-sieved brown rice weight [6, 16]: 228 ± 20.1 g
- Sieved brown rice [6, 16]: 221 ± 19.5 g
- Total weight [6, 16]: 638 ± 59.6 g
- Extension of shoots and roots [4]: promoted extension of shoots and roots concentration-dependently
